The subject of series [1] is HCV replicon (5-2 Luc replicon-comprising cells). Description: HCV replicon assay (luciferase). In kind it is cell-based, Hepatitis C virus. The conditions noted are these: Hepatitis C virus; 5-2 Luc replicon cells, luciferase readout; read-out: Replicon IC50. The essentials: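 Readout: IC50 from a 50% drop in luciferase signal (Bright-Glo, luminometer), scored + (≤10 μM) or − (>10 μM). Compounds added at various concentrations to 5-2 Luc replicon cells (Huh7 background), pre-incubated 24 h, then incubated 24 h more before reading.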

Series [2] is described as follows: Cytotoxicity assay (Cell Titer Glo). To be noted: human; 48 hr with compound, ATP-dependent Cell Titer Glo assay; read-out: IC50 in cytotoxicity assay (number of viable cells). In kind it is cell-based. As for the experimental part: Compounds 67, 167, 169, 13, 1, 145, 29, 119, 63, 31, 39, 103, 123, 121, 97, 129, 79, 111, 85, 89, 109, 127, 131, 95, 47, 57, 69, 165, 161, 163, 3, 137, 15, 141, 41, 53, 33, 113, 93, 105, 77, 91, 81, 83, 35, 27, 65, 7, 135, 51, 139, 51, 49, 143, 5, 149, 11, 37, 21, 45, 61, 75, 23, 125, 73, 43, 171 and 101 were tested in a cytotoxicity assay with liver cells including an HCV replicon (5-2 Luc cells, 9–13 cells or Huh-7 cells). In the assay, cells were seeded onto 96-well plates (approx. 7500 cells/well in a volume of 90 μl) and grown for 24 hr at 37° C. On day 2, various concentrations of test compound (in a volume of 10 μl) were added to the wells and the cells were grown for an additional 48 hr at 37° C. On day 4, an ATP-dependent R-Luciferase assay (Cell Titer Glo assay) was performed to determine the number of viable cells.

Some results are limits rather than exact numbers.

For the compound `COc1ccc(NC(=O)C(Cl)Cl)cc1-c1cc(-c2c(Cl)cccc2Cl)no1` [Compound 127, 2,2-Dichloro-N-[3-[3-(2,6-dichlorophenyl)-5-isoxazolyl]4-methoxyphenyl]Acetamide], in series [1], the IC50 is less than 10 µM. Also, the IC50 at 48 h in series [2] is greater than 10 µM.

As to `O=C(O)c1ccc(Cl)c(-c2cc(-c3cccc(NC(=O)C(Cl)Cl)c3)on2)c1Cl` [Compound 139, 2,2-Dichloro-N-[3-[3-(3-carboxy-2,6-dichlorophenyl)-5-isoxazolyl]phenyl]Acetamide], in series [1], the IC50 is greater than 10 µM. Further, the IC50 at 48 h in series [2] is greater than 10 µM.

Take `O=C(Nc1cccc(-c2cc(-c3cc(C(F)(F)F)ccc3Cl)no2)c1)C(Cl)Cl` [Compound 141, 2,2-Dichloro-N-[3-[3-(2-chloro-5-trifluoromethylphenyl)-5-isoxazolyl]phenyl]Acetamide]: the IC50 in series [1] is greater than 10 µM. The concentration for half-maximal inhibition (IC50) at 48 h in series [2] is greater than 10 µM.

Regarding `CC(C)c1cccc(Cl)c1-c1cc(-c2cccc(NC(=O)C(Cl)Cl)c2)on1` [Compound 39, 2,2-Dichloro-N-[3-[3-(2-chloro-6-isopropylphenyl)-5-isoxazolyl]phenyl]Acetamide], the half-inhibitory concentration (IC50) in series [1] was less than 10 µM. In addition, the half-maximal inhibitory concentration (IC50) at 48 h in series [2] was greater than 10 µM.

For the compound `Cc1cccc(C(F)(F)F)c1-c1cc(-c2cccc(NC(=O)C(Cl)Cl)c2)on1` [Compound 85, 2,2-Dichloro-N-[3-[3-(2-methyl-6-trifluoromethylphenyl)-5-isoxazolyl]phenyl]Acetamide], the IC50 in series [1] is less than 10 µM. Moreover, the IC50 at 48 h in series [2] is greater than 10 µM.

Take `CC(C)c1ccccc1-c1cc(-c2cccc(NC(=O)C(Cl)Cl)c2)on1` [Compound 63, 2,2-Dichloro-N-[3-[3-(2-isopropylphenyl)-5-isoxazolyl]phenyl]Acetamide]: the IC50 in series [1] was less than 10 µM. For the same compound, the half-maximal inhibitory concentration (IC50) at 48 h in series [2] is greater than 10 µM.

In the case of `O=C(Nc1cccc(-c2cc(-c3c(O)cccc3C(F)(F)F)no2)c1)C(Cl)Cl` [Compound 35, 2,2-Dichloro-N-[3-[3-(2-hydroxy-6-trifluoromethylphenyl)-5-isoxazolyl]phenyl]Acetamide], the IC50 in series [1] was less than 10 µM. The half-maximal inhibitory concentration (IC50) at 48 h in series [2] is greater than 10 µM.

As to `COc1cccc(F)c1-c1cc(-c2cccc(NC(=O)C(Cl)Cl)c2)on1` [Compound 43, 2,2-Dichloro-N-[3-[3-(2-fluoro-6-methoxyphenyl)-5-isoxazolyl]phenyl]Acetamide], the IC50 in series [1] is less than 10 µM. The IC50 at 48 h in series [2] was greater than 10 µM.

In the case of `CC(C)c1cccc(C(F)(F)F)c1-c1cc(-c2cccc(NC(=O)C(Cl)Cl)c2)on1` [Compound 93, 2,2-Dichloro-N-[3-[3-(2-isopropyl-6-trifluoromethylphenyl)-5-isoxazolyl]phenyl]Acetamide], the half-inhibitory concentration (IC50) in series [1] is less than 10 µM. Also, the IC50 at 48 h in series [2] was greater than 10 µM.

Consider `CCCCc1cccc(Cl)c1-c1cc(-c2cccc(NC(=O)C(Cl)Cl)c2)on1` [Compound 103, 2,2-Dichloro-N-[3-[3-(2-chloro-6-n-butylphenyl)-5-isoxazolyl]phenyl]Acetamide], for which the half-maximal inhibitory concentration (IC50) in series [1] is less than 10 µM. Besides, the 50% inhibitory concentration (IC50) at 48 h in series [2] is greater than 10 µM.

Take `O=C(Nc1cccc(-c2cc(-c3ccccc3OCc3ccccc3)no2)c1)C(Cl)Cl` [Compound 161, 2,2-Dichloro-N-[3-[3-(2-benzyloxyphenyl)-5-isoxazolyl]phenyl]Acetamide]: the half-maximal inhibitory concentration (IC50) in series [1] is greater than 10 µM. In series [2], the concentration for half-maximal inhibition (IC50) at 48 h is greater than 10 µM.

For the compound `O=C(Nc1cccc(-c2cc(-c3c(Cl)cccc3Cl)no2)c1)C(F)F` [Compound 145, 2,2-Difluoro-N-[3-[3-(2,6-dichlorophenyl)-5-isoxazolyl]phenyl]Acetamide], the IC50 in series [1] was greater than 10 µM. Also, the 50% inhibitory concentration (IC50) at 48 h in series [2] was greater than 10 µM.

As for `Cc1cc(C)c(-c2cc(-c3cccc(NC(=O)C(Cl)Cl)c3)on2)c(C)c1` [Compound 69, 2,2-Dichloro-N-[3-[3-(2,4,6-trimethylphenyl)-5-isoxazolyl]phenyl]Acetamide], the IC50 in series [1] was less than 10 µM. Besides, the IC50 at 48 h in series [2] was determined as 3 µM.

With `O=C(Nc1cccc(-c2cc(-c3c(Cl)cccc3C3CCCC3)no2)c1)C(Cl)Cl` [Compound 97, 2,2-Dichloro-N-[3-[3-(2-chloro-6-cyclopentylphenyl)-5-isoxazolyl]phenyl]Acetamide], the IC50 in series [1] was less than 10 µM. The IC50 at 48 h in series [2] was greater than 10 µM.

In the case of `Cc1c(NC(=O)C(Cl)Cl)cccc1-c1cc(-c2c(Cl)cccc2Cl)no1` [Compound 167, 2,2-Dichloro-N-[3-[3-(2,6-dichlorophenyl)-5-isoxazolyl]-2-methylphenyl]Acetamide], in series [1], the IC50 was greater than 10 µM. Further, the half-inhibitory concentration (IC50) at 48 h in series [2] was greater than 10 µM.

`COc1cccc(Cl)c1-c1cc(-c2cccc(NC(=O)C(Cl)Cl)c2)on1` [Compound 81, 2,2-Dichloro-N-[3-[3-(2-chloro-6-methoxyphenyl)-5-isoxazolyl]phenyl]Acetamide]: the IC50 in series [1] is less than 10 µM. Moreover, the IC50 at 48 h in series [2] was greater than 10 µM.

`CN(C)c1cc(Cl)c(-c2cc(-c3cccc(NC(=O)C(Cl)Cl)c3)on2)c(Cl)c1` [Compound 65, 2,2-Dichloro-N-[3-[3-(2,6-dichloro-4-dimethylaminophenyl)-5-isoxazolyl]phenyl]Acetamide]: the concentration for half-maximal inhibition (IC50) in series [1] is less than 10 µM. The IC50 at 48 h in series [2] was greater than 10 µM.

Consider `O=C(Nc1cccc(-c2cc(-c3ccccc3C(F)(F)F)no2)c1)C(Cl)Cl` [Compound 33, 2,2-Dichloro-N-[3-[3-(2-trifluoromethylphenyl)-5-isoxazolyl]phenyl]Acetamide], for which, in series [1], the IC50 is less than 10 µM. Also, the half-inhibitory concentration (IC50) at 48 h in series [2] was greater than 10 µM.

Turning to `O=C(Nc1cccc(-c2cc(-c3c(Cl)ccc(Cl)c3Cl)no2)c1)C(Cl)Cl` [Compound 137, 2,2-Dichloro-N-[3-[3-(2,3,6-trichlorophenyl)-5-isoxazolyl]phenyl]Acetamide], the 50% inhibitory concentration (IC50) in series [1] is greater than 10 µM. The 50% inhibitory concentration (IC50) at 48 h in series [2] was greater than 10 µM.

Turning to `O=C(Nc1cccc(-c2cc(-c3c(F)ccc(F)c3Cl)no2)c1)C(Cl)Cl` [Compound 53, 2,2-Dichloro-N-[3-[3-(2-chloro-3,6-difluorophenyl)-5-isoxazolyl]phenyl]Acetamide], the IC50 in series [1] was less than 10 µM. In addition, the half-inhibitory concentration (IC50) at 48 h in series [2] is greater than 10 µM.

With `O=C(Nc1cccc(-c2cc(-c3c(Cl)cccc3Cl)no2)c1)C(Br)Br` [Compound 29, 2,2-Dibromo-N-[3-[3-(2,6-dichlorophenyl)-5-isoxazolyl]phenyl]Acetamide], in series [1], the half-inhibitory concentration (IC50) was less than 10 µM. The half-maximal inhibitory concentration (IC50) at 48 h in series [2] was greater than 10 µM.

Regarding `O=C(Nc1cccc(-c2cc(-c3ccccc3C3CCCC3)no2)c1)C(Cl)Cl` [Compound 129, 2,2-Dichloro-N-[3-[3-(2-cyclopentylphenyl)-5-isoxazolyl]phenyl]Acetamide], the half-inhibitory concentration (IC50) in series [1] was less than 10 µM. In series [2], the IC50 at 48 h was greater than 10 µM.

As for `O=C(Nc1cccc(-c2cc(-c3c(Cl)cccc3C3CC3)no2)c1)C(Cl)Cl` [Compound 79, 2,2-Dichloro-N-[3-[3-(2-chloro-6-cyclopropylphenyl)-5-isoxazolyl]phenyl]Acetamide], the 50% inhibitory concentration (IC50) in series [1] is less than 10 µM. For the same compound, the IC50 at 48 h in series [2] is greater than 10 µM.

On to `O=C(Nc1cccc(-c2cc(-c3c(Cl)cccc3C3CCCCC3)no2)c1)C(Cl)Cl` [Compound 111, 2,2-Dichloro-N-[3-[3-(2-chloro-6-cyclohexylphenyl)-5-isoxazolyl]phenyl]Acetamide], for which the IC50 in series [1] is less than 10 µM. Also, in series [2], the IC50 at 48 h is greater than 10 µM.

`O=C(CCl)Nc1cccc(-c2cc(-c3c(Cl)cccc3Cl)no2)c1` [Compound 67, 2-Chloro-N-[3-[3-(2,6-dichlorophenyl)-5-isoxazolyl]phenyl]Acetamide]: the IC50 in series [1] was less than 10 µM. In addition, the IC50 at 48 h in series [2] was greater than 5 µM.

These data come from US7115642B2, “Substituted diphenyl isoxazoles, pyrazoles and oxadiazoles useful for treating HCV infection” (priority 2003, dated 2006).
